Data as given in patent US20070275936A1, “Formulations and Treatment Methods” (priority 1998, published 2007).
Read-outs that look alike come from different tables or passages of the source.

Tests used:
[1] = test system: Chloroquine sensitive T996/86 P. falciparum; assay: In vitro antimalarial testing (schizont inhibition / 3H-hypoxanthine incorporation); format: cell-based
Method: For in vitro antimalarial testing, micro-titer plates were used. The concentration of drugs were prepared as pMol/well according to WHO standard procedures (WHO, 1990). The test compound was dissolved in 15% DMSO in sterile RPMI-1640. Both chloroquine sensitive (e.g., WS/97) and resistant (e.g., MN/97) isolates of Plasmodium species are used.
A schizont inhibition assay was performed as follows. The micro-titer plates were predosed with various concentrations of the test compound. 50 μL of parasitised erythrocyte suspension in RPMI-1640 (0.2 mL erythrocyte+0.3 mL serum+4-5 ml RPMI-1640) were dispensed in microtiter wells that contained various concentrations of drug. Triplicate readings were made for each concentration.
A ^3H-hypoxanthine incorporation assay was performed as follows. The testing was carried out according to the procedure of Desjardins et al. 1979. After 30 hr culture at 37 degrees C., the same microtiter plates from schizont inhibition assays with another triplicate wells were pulsed with ^3H-hypoxanthine for overnight. The cell suspensions were washed twice on millipore glass fiber filter with Millipore filter apparatus. The filter discs were counted for DPM by a Beckman LS6000 β-scintillation counter. The activity of the drug was measured by plotting DPM against concentration of drug.

Plasmodium berghei = assay: Lewis rat in vivo parasitemia study; conditions: Lewis rats, chloroquine 40 mg/kg i.v. days 0-3
P. berghei HP15 ANKA = assay: Four-day in vivo suppressive test in TO mice; parameters: species or system Plasmodium berghei; conditions: day 5 blood films, 5 equals control
Method: The 4-day suppressive test has been widely used and it can be performed within a 1 week period. The test consists of the inoculation of parasitised erythrocytes on the first day of the experiment (D0), followed by an injection of the test compound, which is also administered on the 2nd, 3rd and 4th days of the protocol. On the 5th day, blood films are taken and antimalarial activity is assessed either by calculating parasitemia, or by scoring parasite numbers on a predetermined scale (i.e., 1-5).
The protocol is summarized as follows. Five female TO mice were used per test group. P. berghei HP15 ANKA parasites were collected by cardiac puncture using a heparinised syringe from a donor mouse having a 30+% parasitaemia. The blood was diluted with diluting agent (50% HIFCS+50% sterile PBS) to a final concentration of 1% parasitaemia or 1×10^7 infected erythrocytes per 0.2 mL of the infecting suspension. […] The steroid formulations were administered intraperitoneally 2 hours after parasite inoculation. The compounds were administered once a day starting on Do, and continued on the following three days. Blood films were made from tail blood on the day after the last dosing of compound and the blood was fixed with 100% methanol and stained with 10% Giemsa. Parasitaemias were scored on a scale of 0-5, where 5 is equal to the control.
An inoculum of 1% parasitaemia […], 0.2 mL per mouse (female strain TO mice), was delivered by intravenous injection. Drug administration commenced 2 hours after inoculation on Day 1 and continued for 3 days.

Wistar rats = assay: DNBS induced distal colitis in rats; format: in vivo; conditions: for animals with moderate acute inflammation: 5 of 10 in immunosteroid vehicle controls; for animals with severe chronic inflammation: 14 days after DNBS challenge, 8 of 10 in immunosteroid vehicle controls; for diarrhea: 7-oxodehydroepiandrosterone 2 and 20 mg/mL s.c., sulfasalazine PO, AET 20 mg/kg
Method: Groups of 3 male Wistar rats (180±20 grams) fasted for 24 hours before 2,4-dinitrobenzene sulfonic acid (DNBS) or saline challenge were used. Distal colitis was induced by intra-colonic instillation of 0.5 mL of an ethanolic solution of DNBS (30 mg in 0.5 mL of a 30% ethanol in saline solution) after which 2 mL of air was injected through the cannula to ensure that the solution remained in the colon. The volume used was 0.1 mL per injection of 2 and 20 mg/mL of 7-oxodehydroepiandrosterone in a liquid formulation, was administered by subcutaneous injection once a day for 6 days. The formulation contained […] of 7-oxodehydroepiandrosterone in a non-aqueous suspension that contained 2% benzyl alcohol w/v, 0.1% Brij 96 w/v and equal volumes of PEG 300 and propylene glycol. Concentrations of 2 mg/mL and 20 mg/mL were obtained by diluting the […] with vehicle that lacked the active substance.
The first dose was given 30 minutes after DNBS challenge. Sulfasalazine (30 mg/mL in 2% Tween 80 in distilled water) was administered orally (PO) once a day (10 mL/kg/day) for 7 days, the first two doses beginning 24 hours and 2 hours before DNBS challenge. The presence of diarrhea was recorded daily by examining the anal area. Animals were fasted for 24 hours prior to being sacrificed. Animals were sacrificed on day 7 or day 8 and their colons were removed and weighed. Before removal of the colon, signs of adhesion between the colon and other organs were recorded. Also, the presence of ulcerations was noted after weighing of each colon. The “net” change of colon-to-body weight (BW) ratio was normalized relative to saline-challenged baseline group. A 30% decrease in “net” colon-to-body weight ratio was considered significant.
A total of five studies were conducted. Data from the first study are reported in this report. The 7-oxodehydroepiandrosterone at 2 and 20 mg/mL, decreased the net colon-to-body weight ratio by 19 and by 14% relative to vehicle-treated group, respectively. […] The formula 1 compound 3β,7β,17β-trihydroxyandrost-5-ene (AET) was administered by subcutaneous injections of 2 and 20 mg/day for 5 or 6 days, with the first dose injected 30 minutes post-DNBS challenge. The AET formulation was the same as the 7-oxodehydroepiandrosterone formulation, except that AET replaced 7-oxodehydroepiandrosterone. AET decreased the net colon-to-body weight ratio by 15% and 21% relative to controls (see the table below). Animals treated with AET (20 mg/kg) had no diarrhea. […] The same formulations containing BrEA hemihydrate (100 mg/mL) or dehydroepiandrosterone (20 mg/mL) decreased the net colon-to-body weight ratio by 21 and 3%, respectively relative to controls.

BALB/c mice = assay: Reversal of immunosenescence: HBsAg vaccination of aged mice; format: in vivo
Method: Healthy aged (20-month) or immunologically-mature (3-month) BALB/c mice were vaccinated with hepatitis B surface antigen (HBsAg) (2 μg; Recombivax-HB; Merck) and Alum (2.75 μg). The aged mice were vaccinated with the antigen and also received a single subcutaneous injection of either 0.3 mg or 3.0 mg of 3β,7β,17β-trihydroxyandrost-5-ene (AET), BrEA or 7-oxodehydroepiandrosterone, dehydroepiandrosterone or the vehicle (placebo control). The AET, BrEA hemihydrate or dehydroepiandrosterone was present in a formulation that contained 60 mg/mL of the compound suspended in 0.1% w/v carboxymethyl cellulose sodium in 0.9% saline. 7-Oxodehydroepiandrosterone was in a formulation that contained 60 mg/mL of the compound suspended in 0.1% w/v gum arabic in 0.9% saline. A concentration of 6 mg/mL was obtained by diluting the 60 mg/mL formulation with vehicle that lacked the active substance.
Blood samples were collected 14, 21 and 34 days after treatment and the sera were analyzed by ELISA to determine the concentration of HBsAg-specific IgG (total IgG). In addition, samples obtained on day 21 were analyzed to determine the concentration of HBsAg-specific IgG1 and IgG2a subclasses. The results summarized below were average values obtained with blood samples collected 21 days after vaccination of groups of 8 mice. Subcutaneous injection was performed after shaving the hair from the thighs of each mouse. The injected volume was 50 μL for compound (3.0 mg or 0.3 mg) or placebo, and for vaccine preparation. The vehicle control consisted of carboxymethylcellulose (0.5%) in saline (0.9%). Antibody titers were determined by ELISA.
Secondary antibody response. Later, 42 days after the initial exposure to HBsAg, serum samples were taken from the mice described in the previous section and these were tested for anti-HBsAg IgG. At this time-point, vaccine-specific IgG titers were either low or undetectable. Three days later (45 days after first vaccination), the mice were injected again with HBsAg in Alum, but this time, none of the mice received immunosteroid (secondary vaccination). Serum samples collected 7 days and 14 days after the second exposure to HBsAg vaccine were assayed for anti-HBsAg antibody. […] In contrast, in aged mice that had received no immunosteroid with the first HBsAg injection, low levels of anti-HBsAg were detectable, and only in 4 of the 8 mice in this group was antibody detectable. Increases in anti-HBsAg titers were seen following secondary vaccination in aged animals that had been treated with immunosteroid in conjunction with the first HBsAg exposure. The anti-HBsAg antibody titer in serum increased following secondary vaccination in all 8 mice in the groups of aged mice that were treated at primary vaccination with the higher dose (3 mg/mouse) of AET, BrEA or 7-oxodehydroepiandrosterone, or with dehydroepiandrosterone (0.3 mg/mouse). In those aged mice that had received the lower dose (0.3 mg/mouse) of AET, BrEA or 7-oxodehydroepiandrosterone at vaccination, an intermediate response was seen, with 6 of the 8 mice producing detectable anti-HBsAg in response to secondary vaccination.

[2] = T996/86 P. falciparum in vitro, read-out: IC50
[3] = DNBS rats, first study, groups of 3

Compound	% inhibition ([1]; 0.938 μM) [%]	% inhibition ([1]; 1.875 μM) [%]	% inhibition ([1]; 3.25 μM) [%]	% inhibition ([1]; 7.5 μM) [%]	% inhibition ([1]; 15 μM) [%]	% inhibition ([1]; 30 μM) [%]	IC50 [1, 2] [µM]	animals with moderate acute inflammation (Wistar rats; 7 days after DNBS challenge) [animals]	animals with severe chronic inflammation (Wistar rats) [animals]	adhesions (Wistar rats; [3])	diarrhea (Wistar rats; DNBS rats)	further results
CCN(CC)CCCC(C)Nc1ccnc2cc(Cl)ccc12 (centres unmarked) [Chloroquine, reference compound]	–	–	–	–	–	–	–	–	–	–	–	IC50 ([1]; Plasmodium falciparum, T996): 0.009 µM; inhibition at 0.00625 µM ([1]; Plasmodium falciparum, T996): 27.2%; inhibition at 0.0125 µM ([1]; Plasmodium falciparum, T996): 86.8%; inhibition at 0.025 µM ([1]; Plasmodium falciparum, T996): 94.5%; inhibition at 0.05 µM ([1]; Plasmodium falciparum, T996): 97.3%; inhibition at 0.1 µM ([1]; Plasmodium falciparum, T996): 94.6%; inhibition at 0.2 µM ([1]; Plasmodium falciparum, T996): 95.9%; % RBC parasitemia (Plasmodium berghei; Day 4, saline control 16%): 10%; % RBC parasitemia (Plasmodium berghei; Day 11, saline control 36%): 16%; Parasitaemia Score (0-5) (P. berghei HP15 ANKA; 3 mg/kg × 4 days i.p.): 1
Etienic Acid Methyl Ester	43.3	41	46	40.9	45.7	60	19.5	–	–	–	–	–
Etianic Acid Methyl Ester	47.1	43.4	41.4	45.3	47.4	61.5	17.5	–	–	–	–	–
Etienic Acid	–	–	–	–	–	–	–	–	–	–	–	Parasitaemia Score (0-5) (P. berghei HP15 ANKA; 100 mg/kg × 4 days i.p.): 2
O=C(O)c1cc(/N=N/c2ccc(S(=O)(=O)Nc3ccccn3)cc2)ccc1O [Sulfasalazine]	–	–	–	–	–	–	–	6	2	no animals exhibited adhesions or colonic ulceration	all animals treated with Sulfazalazine had diarrhea	animals with severe acute inflammation (Wistar rats; 7 days after DNBS challenge, 3 of 10 in immunosteroid vehicle controls): 3 animals; colonic ulceration (Wistar rats; [3]): no animals exhibited adhesions or colonic ulceration
C[C@]12CC[C@H]3[C@@H]([C@@H](O)C=C4C[C@@H](O)CC[C@@]43C)[C@@H]1CC[C@@H]2O [AET, 3β,7β,17β-trihydroxyandrost-5-ene]	–	–	–	–	–	–	–	6	3	Adhesion was absent	no diarrhea	animals with ulcers (Wistar rats; 14 days after challenge, treatment began the same day as challenge): 1 animal; mice producing anti-HBsAg in response to secondary vaccination (BALB/c mice; groups of 8, 0.3 mg/mouse at primary vaccination): 6 mice; mice with increased anti-HBsAg antibody titer following secondary vaccination (BALB/c mice; groups of 8, 3 mg/mouse at primary vaccination): 8 mice
